*1 amine or outer side, *2 acyl side, *3 side chain or, on linkers, in order; H or OH if unused. Where a SMILES comes first, the peptide text is derived from it. Bridges are numbered along the chain shown (N, C = ends). Side-chain parts run from the residue outwards. The star is where a group is joined. C20 diacid = O=C(O)CCCCCCCCCCCCCCCCCCC(=O)*; C18 diacid = O=C(O)CCCCCCCCCCCCCCCCC(=O)*; γGlu = O=C(O)[C@H](CCC(=O)[*:2])N[*:1]; AEEA = NCCOCCOCC(=O)O

The subject of test [1] is food intake. Nature of the test: Pharmacological Assay (I) - efficacy testing on appetite, ad libitum fed rat model. It is filed as in vivo, Sprague Dawley (SD) rats. The note with it: 30 nmol/kg vs vehicle, ad libitum fed rats, n=5-7, 0-48 hours. From the text:
Assays Pharmacological Assay (I)—Experimental Protocol for Efficacy Testing on Appetite with an Amylin Derivative, Using an Ad Libitum Fed Rat Model. Sprague Dawley (SD) rats from Taconic Europe, Denmark are used for the experiments. The rats have a body weight 200-250 g at the start of experiment. The rats arrive at least 10-14 days before start of experiment to allow acclimatization to experimental settings. During this period the animals are handled at least 2 times. After arrival rats are housed individually for one week in a reversed light/dark phase (meaning that lights are off during daytime and on during nighttime) for two weeks. Since rats are normally active and eat their major part of their daily food intake during the dark period, rats are dosed in the morning right before lights are turned off. This set-up results in the lowest data variation and highest test sensitivity. The experiment is conducted in the rats' home cages and rats have free access to food and water throughout the acclimatization period and the experiment period. Each dose of derivative is tested in a group of 5-8 rats. A vehicle group of 6-8 rats is included in each set of testing. Rats are dosed once according to body weight with a 0.01-3 mg/kg solution administered intraperitoneally (ip), orally (po) or subcutaneously (sc). The time of dosing is recorded for each group. After dosing, the rats are returned to their home cages, where they then have access to food and water. The food consumption is recorded individually continuously by on-line registration or manually every hour for 7 hours, and then after 24 h and sometimes 48 h. At the end of the experimental session, the animals are euthanized. The individual data are recorded in Microsoft excel sheets. Outliers are excluded after applying the Grubbs statistical evaluation test for outliers, and the result is presented graphically using the GraphPad Prism program.

Test [2] has as its target T1, Amylin 3(a) receptor (human calcitonin receptor (CTa) and RAMP-3) (Homo sapiens, UniProt O60896+P30988).
T1 construct: expressed in transfected cells; host or cells: BHK570 cells, stably transfected with a CRE-luciferase reporter
Nature of the test: Luciferase assay (III), BHK Amylin 3(a)//CRE-luc cells. The note with it: BHK cells with Amylin 3(a) receptor and CRE luciferase reporter, 4 hours incubation; read-out: Potency Luciferase. The format is cell-based. The method in brief:
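Read-out is CRE-driven luciferase luminescence, taken 30 min after LucLite addition at room temperature. Compounds were incubated 4 h at 37° C in assay medium (10% FBS, 10 mM Hepes, pH 7,4). The cell line is BHK570 co-transfected with human calcitonin receptor CTa and RAMP-3, seeded overnight before use.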
(In general: A reporter such as luciferase makes a cellular process visible.)

T1 sequence (O60896 24-148): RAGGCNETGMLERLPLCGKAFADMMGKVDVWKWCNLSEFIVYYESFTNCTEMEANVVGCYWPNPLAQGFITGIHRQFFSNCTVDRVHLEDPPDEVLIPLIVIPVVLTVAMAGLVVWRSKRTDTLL
T1 sequence (P30988 25-474): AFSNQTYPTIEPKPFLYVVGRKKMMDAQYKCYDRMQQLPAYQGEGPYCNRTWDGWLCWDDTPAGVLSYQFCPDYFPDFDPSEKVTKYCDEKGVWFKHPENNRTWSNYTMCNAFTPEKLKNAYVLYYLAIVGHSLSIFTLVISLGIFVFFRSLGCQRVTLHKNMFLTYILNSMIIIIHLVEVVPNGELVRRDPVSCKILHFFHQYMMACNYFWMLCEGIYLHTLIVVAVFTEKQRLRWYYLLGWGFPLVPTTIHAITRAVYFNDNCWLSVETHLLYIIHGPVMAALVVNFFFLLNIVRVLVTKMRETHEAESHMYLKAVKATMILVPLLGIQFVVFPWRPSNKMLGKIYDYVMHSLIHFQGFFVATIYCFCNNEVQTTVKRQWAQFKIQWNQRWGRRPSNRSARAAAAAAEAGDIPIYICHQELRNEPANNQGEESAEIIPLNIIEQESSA

Regarding `CC[C@H](C)[C@H](NC(=O)[C@@H]1CCCN1C(=O)CNC(=O)[C@H](Cc1ccccc1)NC(=O)[C@H](CC(N)=O)NC(=O)[C@H](CC(N)=O)NC(=O)[C@H](CO)NC(=O)[C@H](CO)NC(=O)[C@H](Cc1c[nH]cn1)NC(=O)[C@H](Cc1c[nH]cn1)NC(=O)[C@H](CC(C)C)NC(=O)[C@H](Cc1ccccc1)NC(=O)[C@H](CC(N)=O)NC(=O)[C@H](C)NC(=O)[C@H](CC(C)C)NC(=O)[C@H](CCCNC(=N)N)NC(=O)[C@H](CCC(N)=O)NC(=O)[C@@H](NC(=O)[C@H](C)NC(=O)[C@@H]1CSSC[C@H](NC(=O)[C@H](CCCNC(=N)N)NC(=O)COCCOCCNC(=O)COCCOCCNC(=O)CC[C@H](NC(=O)CCCCCCCCCCCCCCCCC(=O)O)C(=O)O)C(=O)N[C@@H](CC(N)=O)C(=O)N[C@@H]([C@@H](C)O)C(=O)N[C@@H](C)C(=O)N[C@@H]([C@@H](C)O)C(=O)N1)[C@@H](C)O)C(=O)N[C@@H](CC(C)C)C(=O)N1CCC[C@H]1C(=O)N1CCC[C@H]1C(=O)N[C@H](C(=O)N[C@@H](CC(N)=O)C(=O)N[C@H](C(=O)NCC(=O)N[C@@H](CO)C(=O)N[C@@H](CC(N)=O)C(=O)N[C@H](C(=O)N[C@@H](Cc1ccc(O)cc1)C(N)=O)[C@@H](C)O)C(C)C)[C@@H](C)O` [Example 45, N-alpha-[2-(2-{2-[2-(2-{2-[(S)-4-Carboxy-4-(17-carboxyheptadecanoylamino)butyrylamino]ethoxy}ethoxy)acetylamino]ethoxy}ethoxy)acetyl][Arg1,His17]-pramlintide] ({C18 diacid-γGlu-AEEA-AEEA}-RCNTATCATQRLANFLHHSSNNFGPILPPTNVGSNTY-NH2; disulfide 2-7), the “food intake over a period of 48 hours” value in test [1] is recorded as “effectively reducing food intake”. For the same compound, the EC50 in test [2] came to 0.03 nM.

On to `CC[C@H](C)[C@H](NC(=O)[C@@H]1CCCN1C(=O)CNC(=O)[C@H](Cc1ccccc1)NC(=O)[C@H](CC(N)=O)NC(=O)[C@H](CC(N)=O)NC(=O)[C@H](CO)NC(=O)[C@H](CO)NC(=O)[C@H](Cc1c[nH]cn1)NC(=O)[C@H](Cc1c[nH]cn1)NC(=O)[C@H](CC(C)C)NC(=O)[C@H](Cc1ccccc1)NC(=O)[C@H](CC(N)=O)NC(=O)[C@H](C)NC(=O)[C@H](CC(C)C)NC(=O)[C@H](CCCNC(=N)N)NC(=O)[C@H](CCC(N)=O)NC(=O)[C@@H](NC(=O)[C@H](C)NC(=O)[C@@H]1CSSC[C@H](NC(=O)[C@H](Cc2c[nH]cn2)NC(=O)[C@H](Cc2c[nH]cn2)NC(=O)COCCOCCNC(=O)CC[C@H](NC(=O)CCCCCCCCCCCCCCCCCCC(=O)O)C(=O)O)C(=O)N[C@@H](CC(N)=O)C(=O)N[C@@H]([C@@H](C)O)C(=O)N[C@@H](C)C(=O)N[C@@H]([C@@H](C)O)C(=O)N1)[C@@H](C)O)C(=O)N[C@@H](CC(C)C)C(=O)N1CCC[C@H]1C(=O)N1CCC[C@H]1C(=O)N[C@H](C(=O)N[C@@H](CC(N)=O)C(=O)N[C@H](C(=O)NCC(=O)N[C@@H](CO)C(=O)N[C@@H](CC(N)=O)C(=O)N[C@H](C(=O)N[C@@H](Cc1ccc(O)cc1)C(N)=O)[C@@H](C)O)C(C)C)[C@@H](C)O` [Example 38, N-alpha-[2-(2-{2-[4-(S)-Carboxy-4-(19-carboxynonadecanoylamino)butyrylamino]ethoxy}ethoxy)acetyl]-His-[His1,His17]-pramlintide] ({C20 diacid-γGlu-AEEA}-HHCNTATCATQRLANFLHHSSNNFGPILPPTNVGSNTY-NH2; disulfide 3-8), for which the “food intake over a period of 48 hours” value in test [1] is “effectively reducing food intake”. Moreover, the EC50 in test [2] is 0.1 nM.

In the case of `CC[C@H](C)[C@H](NC(=O)[C@@H]1CCCN1C(=O)CNC(=O)[C@H](Cc1ccccc1)NC(=O)[C@H](CC(N)=O)NC(=O)[C@H](CC(=O)O)NC(=O)[C@H](CO)NC(=O)[C@H](CO)NC(=O)[C@H](Cc1c[nH]cn1)NC(=O)[C@H](Cc1c[nH]cn1)NC(=O)[C@H](CC(C)C)NC(=O)[C@H](Cc1ccccc1)NC(=O)[C@H](CC(N)=O)NC(=O)[C@H](C)NC(=O)[C@H](CC(C)C)NC(=O)[C@H](CCCNC(=N)N)NC(=O)[C@H](CCC(N)=O)NC(=O)[C@@H](NC(=O)[C@H](C)NC(=O)[C@@H]1CSSC[C@H](NC(=O)[C@@H](N)CCCCN)C(=O)N[C@@H](CCCCNC(=O)COCCOCCNC(=O)[C@H](CCC(=O)O)NC(=O)[C@H](CCC(=O)O)NC(=O)CCCCCCCCCCCCCCCCCCC(=O)O)C(=O)N[C@@H]([C@@H](C)O)C(=O)N[C@@H](C)C(=O)N[C@@H]([C@@H](C)O)C(=O)N1)[C@@H](C)O)C(=O)N[C@@H](CC(C)C)C(=O)N1CCC[C@H]1C(=O)N1CCC[C@H]1C(=O)N[C@H](C(=O)N[C@@H](CC(N)=O)C(=O)N[C@H](C(=O)NCC(=O)N[C@@H](CO)C(=O)N[C@@H](CC(N)=O)C(=O)N[C@H](C(=O)N[C@@H](Cc1ccc(O)cc1)C(N)=O)[C@@H](C)O)C(C)C)[C@@H](C)O` [Example 3, N-epsilon3-{2-[2-(2-{(S)-4-Carboxy-2-[(S)-4-carboxy-2-(19-carboxynonadecanoylamino)butyrylamino]butyrylamino}ethoxy)ethoxy]acetyl}-[Lys3,His17,Asp21]-pramlintide] (H-KCK([AEEA-Glu-Glu-C20 diacid])TATCATQRLANFLHHSSDNFGPILPPTNVGSNTY-NH2; disulfide 2-7), in test [1], the “food intake over a period of 48 hours” value was “effectively reducing food intake”. The EC50 in test [2] is 0.4 nM.
